The conditions of test [1]: cited from earlier work.
In a further test the test system is Male Sprague-Dawley rats. Description: Rat elevated zero maze model of anxiety. The note with it: for frequency of stretched attend postures (SAPs): 30 min before 5-min test; for dose at which switch to an anxiolytic effect was shown (magnitude of reduction in SAPs): ip, rat zero maze. In kind it is in vivo. The text has this: The rat zero-maze model is a refined alternative to the plus-maze, the most widely used animal model of anxiety, and consists of an elevated annular platform, divided equally into four quadrants. Two opposite quadrants are enclosed by Perspex walls on both the inner and the outer edges of the platform, while the remaining two opposite quadrants are open being enclosed only by a Perspex “lip”. Animals will show a preference for the closed areas, and avoidance of the open sections is assumed to stem from a rodent's natural aversion to open, exposed spaces. A reduction in the amount of activity on the open areas is considered to reflect an increase in anxiety. The ethologically-based behavior stretched attend postures (SAP) from closed to open quadrants is assessed as an index of anxiety. Increase in SAPs is indicative of an anxiogenic effect and decreases in SAPs is indicative of an anxiolytic effect. Shepherd, J K; Grewel, S S; Fletcher, A; Bill, D J; Dourish, C T (1994) Behavioural and pharmacological validation of the elevated “zero-maze” as an animal model of anxiety. Psychopharmacol., 116:56-64.
Male Sprague-Dawley 200-250 g (Envigo UK) rats were used. Animals were group-housed (5 per cage; cage size: 40×40×20 cm) in a temperature-controlled environment (22±2° C.), under a 12 h light-dark cycle (lights on: 08:00 hours) for one week prior to testing. Food and water were freely available. Number of animals per group=5. Animals were moved into the experimental room 16-24 hours before testing.
The elevated 0-maze comprises a black Perspex annular platform (105 cm diameter, 10 cm width) elevated to 65 cm above ground level, divided equally into four quadrants. Two opposite quadrants are enclosed by clear red Perspex walls (27 cm high) on both the inner and outer edges of the platform, while the remaining two opposite quadrants are surrounded only by a Perspex “lip” (1 cm high) which serves as a tactile guide to animals on these open areas.
Subjects were weighed and tail marked before being injected. After a specified pre-treatment time, subjects were placed in a closed quadrant and a 5-min test period were recorded on videotape for subsequent analysis. The maze was cleaned with 5% methanol/water solution and dried thoroughly between test sessions. Behavioural measures comprise percentage time spent on the open areas (% TO) and frequency of stretched attend postures (SAP) from closed to open quadrants. Since the control groups were all treated identically with the same vehicle these were combined to increase power. The Chlordiazepoxide groups were also treated identically with the same dose so these were also combined to increase power. Animals are scored as being in the open area when all four paws were in an open quadrant and in the closed area only when all four paws have passed over the open-closed divide. All testing were carried out between 9.00 and 16.00 hours.
Chlordiazepoxide was formulated in Vehicle 1 (saline) to a concentration of 1.2 mg/mL to provide a dose of 6 mg/kg when administered ip in 5 mL/kg dosing volumes.
35 male Sprague-Dawley rats in treatment groups of 5, were intraperitoneally dosed with either Vehicle 1 (saline) or Rac-MBDB at 1 of 5 dose levels (2.5, 5, 10, 15 & 30 mg/kg) or chlordiazepoxide (6 mg/kg) in 5 mL/kg injection volumes. Thirty min later at T-0, rats were individually placed in a closed arm of the zero-maze and behavior assessed by a “blind” observer using remote video monitoring over the subsequent 5 min. The animals were then removed and the maze carefully wiped with 5% methanol/water solution before the next test was begun.
35 male Sprague-Dawley rats in treatment groups of 5, were intraperitoneally dosed with either Vehicle 1 (saline) or R-MBDB at 1 of 5 dose levels (2.5, 5, 10, 15 & 30 mg/kg) or chlordiazepoxide (6 mg/kg) in 5 mL/kg injection volumes. […]

Test [2] has as its system participants diagnosed with at least moderate post-traumatic stress disorder (PTSD). Description: Double-blind, randomized, placebo-controlled clinical trial of MBDB-assisted psychotherapy in PTSD. The format is in vivo, human. Conditions: results that "may" be observed; for change in CAPS-5 assessment compared to the placebo group: at Study Conclusion. As for the experimental part:
A multicenter, randomized, double-blind, placebo-controlled trial is conducted to assess the efficacy and safety of MBDB-assisted psychotherapy versus psychotherapy with placebo control in participants diagnosed with at least moderate post-traumatic stress disorder (PTSD). Rationale
This multicenter, randomized, double-blind, placebo-controlled trial is conducted at various sites in the United States with IRB approval from each study site. A flexible dose of MBDB hydrochloride salt or placebo, followed by a supplemental half-dose unless contraindicated by patient's previous response or medical history, is also administered during the Treatment Period with psychotherapy in at least 3 blinded monthly Experimental Sessions. The Supplemental Dose extends the duration of drug effects on the participants during an Experimental Session. MBDB test groups are further subdivided into specific groups receiving only racemic MBDB hydrochloride salt, S-MBDB hydrochloride salt, or R-MBDB hydrochloride salt. An optional Risk Evaluation and Mitigation Strategy (REMS) Protocol may be implemented for the racemic MBDB, S-MBDB, R-MBDB, and placebo-groups. The Treatment Period lasts for approximately 12 weeks. During the Treatment Period, each Experimental Session is followed by three Intervening Sessions of non-drug psychotherapy. Each Experimental Session involves an overnight stay. The Primary Outcome measure, the change in Clinician Administered PTSD Scale for DSM-5 (CAPS-5), is determined by a blinded Independent Rater (IR) pool multiple times throughout the study. The study consists of separate periods for each participant. Initially, prospective participants undergo a Screening Period involving an initial eligibility assessment, a medical history intake, informed consent, and enrollment of eligible participants. Next, a Preparation Period is undertaken for enrolled participants involving medication tapering and clinical baseline assessments to confirm each participant meets enrollment criteria. As part of the Preparation Period, a detailed assessment of co-morbidities to PTSD is recorded. Participants may remain on prescribed courses of selective serotonin reuptake inhibitor (SSRI) or serotonin and norepinephrine reuptake inhibitor (SNRI) treatment. Dosages and/or frequency of administration of a prescribed SSRI or SNRI may be adjusted to fit within study parameters. Participants may be required to taper a prescribed course of medication in order to maintain eligibility within the study. The Treatment Period consists of three monthly Experimental Sessions and associated Intervening Sessions of integrative behavioral psychotherapy. The Treatment Period lasts approximately 12 weeks. Following the Treatment Period is a Follow-up Period and Study Conclusion. During the Follow-up Period and Study Conclusion, participants complete 4 weeks with no study visits, followed by a Study Conclusion visit.
This study compares the effects of three blinded Experimental Sessions of psychotherapy in combination with flexible doses of MBDB or placebo administered as described below. Non-drug preparatory and intervening psychotherapy sessions are also included. Patient's weight is determined for dosage calculation. Initial dose is 180 mg unless this will result in a dosage of less than 1.5 mg/kg of patient weight. Initial dose thereby adjusted upward in 50 mg increments to deliver the lowest dose possible of at least 1.5 mg/kg of patient weight. Initial dose for Experimental Session 2 and 3 is cumulative dose calculated by adding the initial dose plus REMS protocol dose used the previous Experimental Session for each patient.
The primary objective of this study is to evaluate the efficacy and safety of MBDB treatment combined with psychotherapy to treat moderate to severe PTSD compared to identical psychotherapy combined with placebo treatment. […]

The structures appear in SMILES notation.

Take `CCC(Cc1ccc2c(c1)OCO2)NC` (stereo not drawn) [MBDB, 1-(benzo[d][1,3]dioxol-5-yl)-N-methylbutan-2-amine]: in test [1] (adapted from PiHKAL 1991), the “Coming Down, time after dose” value was approximately 90 min. For the same compound, the “Oral MBDB dose, drug activity level Very Strong” value in test [1] (oral) is not below 350 mg.
With `CC[C@H](Cc1ccc2c(c1)OCO2)NC` [R-MBDB], the “frequency of stretched attend postures (SAPs)” value (“frequency” for short) in the test with Male Sprague-Dawley rats (10 mg/kg ip) is on record as “produced a consistent level of SAPs similar to the 5 mg/kg”. In addition, the “frequency” value in the test with Male Sprague-Dawley rats (15 mg/kg ip) is “showed a reduction in the number of SAPs compared to lower doses”. The “frequency” value in the test with Male Sprague-Dawley rats (30 mg/kg ip, vs vehicle) is “decreased the frequency of SAPs as effectively as the benzodiazepine chlordiazepoxide”. In addition, the “frequency” value in the test with Male Sprague-Dawley rats (30 mg/kg ip, vs vehicle, listed as R MBDB) is reported as “significantly reduced the number of SAPs”. The “dose at which switch to an anxiolytic effect was shown (magnitude of reduction in SAPs)” value in the test on Male Sprague-Dawley rats was found to be 15 mg/kg. In addition, in test [2], the “change in CAPS-5 assessment compared to the placebo group” value is reported as “significant mean reduction”, the “clinician-rated functional impairment score as measured by SDS compared to placebo-treated controls” value is on record as “significant improvement”, the “daytime sleepiness as measured by ESS” value is reported as “significant improvement” and the “depression as measured by HAM-D compared to placebo-treated controls” value was “significant improvement”.
As to `CC[C@@H](Cc1ccc2c(c1)OCO2)NC` [S-MBDB], the “frequency” value in the test on Male Sprague-Dawley rats (5 mg/kg ip, vs vehicle) is on record as “reached significance”; with Male Sprague-Dawley rats (10 mg/kg ip), “showed a rapid reduction in total SAPs”; in the test on Male Sprague-Dawley rats (15 mg/kg ip) it was “showed a reduction in the number of SAPs compared to lower doses”; in the test on Male Sprague-Dawley rats (30 mg/kg ip, vs vehicle), “decreased the frequency of SAPs as effectively as the benzodiazepine chlordiazepoxide”; with Male Sprague-Dawley rats (30 mg/kg ip, vs vehicle, listed as S MBDB), “significantly reduced the number of SAPs”. Besides, in the test on Male Sprague-Dawley rats, the “dose at which switch to an anxiolytic effect was shown (magnitude of reduction in SAPs)” value is given as 10 mg/kg. The “change in CAPS-5 assessment compared to the placebo group” value in test [2] is reported as “significant mean reduction”. In test [2], the “clinician-rated functional impairment score as measured by SDS compared to placebo-treated controls” value is “significant improvement”. Moreover, the “daytime sleepiness as measured by ESS” value in test [2] is on record as “significant improvement”. In addition, the “depression as measured by HAM-D compared to placebo-treated controls” value in test [2] is given as “significant improvement”.

The record behind these values is patent publication US20250034105A1, “IS[…] N-METHYL-1,3-BENZODIOXOLYLBUTANAMINE (MBDB) AND STEREOISOMERS THEREOF” (Terran Biosciences Inc., priority 2021, published 2025).
